Data as given in patent publication US20210077498A1, “TRANSIENT PROTECTION OF HEMATOPOIETIC STEM AND PROGENITOR CELLS AGAINST IONIZING RADIATION” (G1 Therapeutics, Inc., priority 2015, published 2021).

Legend:
[1] = system: 456 (395 non-mutant) kinases; assay: DiscoveRx KINOMEscan profiling; assay type: binding; settings: single concentration of 1000 nM
HS68 cells = assay: G1 arrest (cellular G1 and S-phase) assay, propidium iodide flow cytometry; assay type: cell-based; settings: Homo sapiens
Procedure: For determination of cellular fractions in various stages of the cell cycle following various treatments, HS68 cells (human skin fibroblast cell line (Rb-positive)) were stained with propidium iodide staining solution and run on Dako Cyan Flow Cytometer. The fraction of cells in G0-G1 DNA cell cycle versus the fraction in S-phase DNA cell cycle was determined using FlowJo 7.2.2 analysis.
Formulas I, II, III, and IV were tested for their ability to arrest HS68 cells at the G1 phase of the cell cycle.

tHS68 cells [2] = assay: Cell cycle arrest in CDK4/6-dependent cells, propidium iodide flow cytometry; assay type: cell-based
Excerpt: To test the ability of CDK4/6 inhibitors to induce a clean G1-arrest, a cell based screening method was used consisting of two CDK4/6-dependent cell lines (tHS68 and WM2664; Rb-positive) and one CDK4/6-independent (A2058; Rb-negative) cell line. […] At the conclusion of the experiment, cells were harvested, fixed, and stained with propidium iodide (a DNA intercalator), which fluoresces strongly red (emission maximum 637 nm) when excited by 488 nm light. Samples were run on Dako Cyan flow cytometer and >10,000 events were collected for each sample. Data were analyzed using FlowJo 2.2 software developed by TreeStar, Inc.

WM2664 or tHS68 = assay: Proliferation by EdU incorporation, RB-intact CDK4/6-dependent cell line; assay type: cell-based; settings: 24 hours; WM2664 for PD0332991 (300 nM), tHS68 for Formula I and III (300 nM or 1000 nM)
Procedure: (§1) SCLC cells were treated with DMSO or the indicated CDK4/6 inhibitor for 24 hours. The effect of CDK4/6 inhibition on proliferation was measured by EdU incorporation. An RB-intact, CDK4/6-dependent cell line (WM2664 or tHS68) and a panel of RB-negative SCLC cell lines (H69, H82, H209, H345, NCI417, or SHP-77) were analyzed for growth inhibition by the various CDK4/6 inhibitors.

[3] = system: RB-negative SCLC cell lines (H69, H82, H209, H345, NCI417, SHP-77); assay: Proliferation by EdU incorporation, RB-negative SCLC cell lines; assay type: cell-based; settings: 24 hours; PD0332991 300 nM, Formula I and III 300 nM or 1000 nM
Procedure: as §1

[4] = system: H69 (human small cell lung cancer, Rb-negative) cells; assay: CellTiter-Glo cellular proliferation assay, H69; assay type: cell-based; settings: NCI-H69, 96 h, four days
Procedure: (§2) Cellular proliferation assays were conducted using the following Rb-negative cancer cell lines: H69 (human small cell lung cancer—Rb-negative) cells or A2058 (human metastatic melanoma cells—Rb-negative). These cells were seeded in Costar (Tewksbury, Mass.) 3093 96 well tissue culture treated white walled/clear bottom plates. Cells were treated Formulas I, II, III, or IV as nine point dose response dilution series from 10 uM to 1 nM. Cells were exposed to compounds and then cell viability was determined after either four (H69) or six (A2058) days as indicated using the CellTiter-Glo® luminescent cell viability assay (CTG; Promega, Madison, Wis., United States of America) following the manufacturer's recommendations. Plates were read on BioTek (Winooski, Vt.) Syngergy2 multi-mode plate reader. The Relative Light Units (RLU) were plotted as a result of variable molar concentration and data was analyzed using Graphpad (LaJolla, Californaia) Prism 5 statistical software to determine the EC50 for each compound.

[5] = system: A2058 (human metastatic melanoma cells, Rb-negative); assay: CellTiter-Glo cellular proliferation assay, A2058; assay type: cell-based; settings: A2058, 144 h, six days
Procedure: as §2

[6] = Metabolic stability in liver microsomes; assay type: in vitro ADME, and mouse; settings: each of the species tested (human, monkey, dog, rat, mouse); 1 uM, 0.5 mg/mL microsomes
Procedure: Human, mouse, and dog liver microsomes were purchased from Xenotech, and Sprague-Dawley rat liver microsomes were prepared by Absorption Systems. The reaction mixture comprising 0.5 mg/mL of liver microsomes, 100 mM of potassium phosphate, pH 7.4, 5 mM of magnesium chloride, and 1 uM of test compound was prepared. The test compound was added into the reaction mixture at a final concentration of 1 uM. An aliquot of the reaction mixture (without cofactor) was incubated in shaking water bath at 37 deg. C. for 3 minutes. The control compound, testosterone, was run simultaneously with the test compound in a separate reaction. The reaction was initiated by the addition of cofactor (NADPH), and the mixture was then incubated in a shaking water bath at 37 deg. C. Aliquots (100 μL) were withdrawn at 0, 10, 20, 30, and 60 minutes for the test compound and 0, 10, 30, and 60 minutes for testosterone. […] Test compound samples were analyzed using the Orbitrap high resolution mass spectrometer to quantify the disappearance of parent test compound and detect the appearance of metabolites. […] Half-lives were calculated using GraphPad software, fitting to a single-phase exponential decay equation.
When calculated half-life was longer than the duration of the experiment, the half-life was expressed as > the longest incubation time. The calculated half-life is also listed in parentheses. […]

tHDF cells = assay: Caspase 3/7 assay after irradiation; assay type: cell-based; settings: 100, 300 or 1,000 nM after 6, 8 or 10 Gy
Procedure: (§3) DNA damage was determined using the g-H2A.X assay and apoptosis was determined with a Caspase 3/7 assay. For the g-H2AX assay, tHS68 cells were fixed and stained using the g-H2A.X Phosphorylation Assay Kit (Flow Cytometry; Millipore, Temecula, Calif.) by the manufacturer's instructions. g-H2AX-positive tHDF cells were then quantified using a CyAn ADP Analyzer (Beckman Coulter, Indianapolis, Ind.) and FlowJo analysis software (Version 7.2.2; Tree Star, Ashland, Oreg.). For the in vitro caspase 3/7 assay, tHDF cells were analyzed directly in the 96-well plates 24 hours after radiation or staurosporine treatment. Caspase 3/7 activation was measured using the Caspase-Glo 3/7 Assay System (Promega, Madison, Wis.) by following the manufacturer's instructions.
(§4) For the g-H2AX assay, 30,000 cells were plated per well in 12-well plates. For the caspase 3/7 assay, 1,000 cells were plated per well in 96-well white wall clear bottom plates. Cells were incubated at 37° C. in a humidified atmosphere of 5% CO2 for 24 hours and then irradiated at 6 Gy, 8 Gy, or 10 Gy.

tHS68 cells [7] = assay: g-H2A.X assay after irradiation; assay type: cell-based; settings: 100, 300 or 1,000 nM after 6, 8 or 10 Gy
Procedure: as §3, §4

[8] = system: mice after total body irradiation; assay: Radiomitigation, survival after total body irradiation; assay type: in vivo
Procedure: Wild-type mice, young adult (8-12 weeks of age) C57BL/6 (The Jackson Laboratory) or C3H (Harlan Sprague-Dawley) animals were used. Animals were irradiated using a 137Cs AECL GammaCell 40 Irradiator (Atomic Energy of Canada) or a XRAD320 (Precision XRay Inc.) biological irradiator. Experiments were carried out using the 137Cs source, unless otherwise noted.

[9] = system: human renal proximal tubule epithelial cells (Rb-positive); assay: Cellular wash-out experiment, renal cells; assay type: cell-based; settings: 300 nM
Procedure: Alternatively, the same experiment was done using normal Renal Proximal Tubule Epithelial Cells (Rb-positive) obtained from American Type Culture Collection (ATCC, Manassas, Va.). Cells were grown in an incubator at 37° C. in a humidified atmosphere of 5% CO2 in Renal Epithelial Cell Basal Media (ATCC) supplemented with Renal Epithelial Cell Growth Kit (ATCC) in 37° C. humidified incubator.
Upon harvesting cells, samples were stained with propidium iodide staining solution and samples run on Dako Cyan Flow Cytometer. The fraction of cells in G0-G1 DNA cell cycle versus the fraction in S-phase DNA cell cycle was determined using FlowJo 7.2.2 analysis.

HSPC [10] = assay: PK half-life and HSPC cell cycle arrest of PD0332991 in humans; assay type: in vivo
[11] = system: HSPC (LKS+) and myeloid progenitor cells (LKS−); settings: single dose 150 mg/kg oral gavage, mice; cited from earlier work
[12] = Grade 3/4 neutropenia and leukopenia; cited from earlier work
HSPC [13] = settings: in humans; cited from earlier work
[14] = system: CDK4/6-dependent cell lines; settings: cited from earlier work
[15] = system: CDK4/6 independent Rb-null melanoma cell line A2058; settings: cited from earlier work
[16] = system: mice exposed to peri-lethal and lethal TBI; settings: compared to untreated controls; cited from earlier work
[17] = single oral dose 150 mg/kg 12 hours after exposure

CN1CCN(c2ccc(Nc3ncc4cc5n(c4n3)C3(CCCCC3)CNC5=O)nc2)CC1 [Formula I, 2′-((5-(4-methylpiperazin-1-yl)pyridin-2-yl)amino)-7′,8′-dihydro-6′H-spiro[cyclohexane-1,9′-pyrazino[1′,2′:1,5]pyrrolo[2,3-d]pyrimidin]-6′-one]
number of 395 non-mutant kinases inhibited, threshold 65% ([1]; inhibitory threshold 65%): 92 | number of 395 non-mutant kinases inhibited, threshold 90% ([1]; inhibitory threshold 90%): 31 | number of 395 non-mutant kinases inhibited, threshold 99% ([1]; inhibitory threshold 99%): 6 | EC50 (HS68 cells): 100 nM | cells in S-phase at the highest concentration shown (tHS68 cells [2]; tHS68, 24 hours, 28% at baseline): 6% | EC50 (tHS68 cells [2]; tHS68 cells, 24 hours, read-out: G1 cell cycle arrest EC50): 80 nM | effect on proliferation (cells in S phase, EdU) of Rb-positive cell line (WM2664 or tHS68): inhibits | effect on growth (cells in S phase, EdU) of Rb-negative SCLC cell lines [3]: does not affect the growth | EC50 [4]: > 3000 nM | EC50 [5]: > 3000 nM | half-life in liver microsomes [6]: shorter half-life than PD0332991 | radiation induced apoptosis (caspase 3/7 activity) (tHDF cells): dose dependent decrease in radiation induced apoptosis | radiation induced DNA damage (H2AX foci) (tHS68 cells [7]): dose dependent decrease in radiation induced DNA damage | survival after 7.5 Gy TBI, two doses ([8]; 150 mg/kg oral at 12 hours and 24 hours post TBI): Survival was also enhanced | survival after 7.2 Gy TBI [8, 17]: provided radiomitigation | survival after 7.5 Gy TBI [8, 17]: significant survival effect

O=C1NCC2(CCCCC2)n2c1cc1cnc(Nc3ccc(N4CCNCC4)cn3)nc12 [Formula II, 2′-((5-(piperazin-1-yl)pyridin-2-yl)amino)-7′,8′-dihydro-6′H-spiro[cyclohexane-1,9′-pyrazino[1′,2′:1,5]pyrrolo[2,3-d]pyrimidin]-6′-one]
EC50 (HS68 cells): 100 nM | EC50 [4]: > 3000 nM | EC50 [5]: 2610 nM

CC(C)N1CCN(c2ccc(Nc3ncc4cc5n(c4n3)C3(CCCCC3)CNC5=O)nc2)CC1 [Formula III, 2′-((5-(4-isopropylpiperazin-1-yl)pyridin-2-yl)amino)-7′,8′-dihydro-6′H-spiro[cyclohexane-1,9′-pyrazino[1′,2′:1,5]pyrrolo[2,3-d]pyrimidin]-6′-one]
EC50 (HS68 cells): 80 nM | effect on proliferation (cells in S phase, EdU) of Rb-positive cell line (WM2664 or tHS68): inhibits | effect on growth (cells in S phase, EdU) of Rb-negative SCLC cell lines [3]: does not affect the growth | EC50 [4]: 2920 nM | EC50 [5]: 2690 nM

O=C1NCC2(CCCCC2)n2c1cc1cnc(Nc3ccc(N4CCC(N5CCOCC5)CC4)cn3)nc12 [Formula IV, 2′-((5-(4-morpholinopiperidin-1-yl)pyridin-2-yl)amino)-7′,8′-dihydro-6′H-spiro[cyclohexane-1,9′-pyrazino[1′,2′:1,5]pyrrolo[2,3-d]pyrimidin]-6′-one]
EC50 (HS68 cells): 25 nM | EC50 [4]: > 3000 nM | EC50 [5]: > 3000 nM

CC(=O)c1c(C)c2cnc(Nc3ccc(N4CCNCC4)cn3)nc2n(C2CCCC2)c1=O [PD0332991, 6-acetyl-8-cyclopentyl-5-methyl-2-(5-piperazin-1-yl-pyridin-2-ylammino)-8H-pyrido-[2,3-d]-pyrimidin-7-one]
effect on proliferation (cells in S phase, EdU) of Rb-positive cell line (WM2664 or tHS68): inhibits | effect on growth (cells in S phase, EdU) of Rb-negative SCLC cell lines [3]: does not affect the growth | return to baseline levels of cell division after wash out [9]: took significantly longer to return to baseline levels of cell division | total time for normal bone marrow function to return (HSPC [10]): ≥ 7 days | time to clear the compound (HSPC [10]; 5 half-lives × 27 hour half-life): 6 days | duration of cell cycle arrest of HSPC (HSPC [10]; single administration): approximately one week | duration of sustained reduction in HSPC (LKS+) and myeloid progenitor (LKS−) EdU incorporation [11]: greater than 36 hours | time post oral dosing of return to baseline cell division [11]: 48 h | patients requiring a dose interruption [12]: 71% | patients requiring a dose reduction [12]: 35% | PK half-life (HSPC [13]): 27 h | IR protection [14]: exhibited IR protective characteristics | G1 arrest [15]: did not G1 arrest | protection from IR exposure [15]: failed to protect | HSPC protection and survival after TBI [16]: protect HSPCs and improve survival of mice
